In patent US8809396B2, “Substituted fused-ring compounds for inflammation and immune-related uses” (Synta Pharmaceuticals Corp., priority 2007, dated 2014):
pIC50: −log10 of the molar value.

System: IL-2 production
Test: Inhibition of IL-2 production in PHA-activated Jurkat cells (ELISA)
Format: cell-based
Conditions: Homo sapiens, PHA 2.5 μg/mL, 20 hours, IL-2 ELISA
Method: Jurkat cells were placed in a 96 well plate (0.5 million cells per well in 1% FBS medium) then a test compound of this invention was added at different concentrations. After 10 minutes, the cells were activated with PHA (final concentration 2.5 μg/mL) and incubated for 20 hours at 37° C. under CO2. The final volume was 200 μL. Following incubation, the cells were centrifuged and the supernatants collected and stored at −70° C. prior to assaying for IL-2 production. A commercial ELISA kit (IL-2 Eli-pair, Diaclone Research, Besancon, France) was used to detect production of IL-2, from which dose response curves were obtained. The IC50 value was calculated as the concentration at which 50% of maximum IL-2 production after stimulation was inhibited versus a non-stimulation control.

SMILES | pIC50
O=C(Nc1ccc2c(c1)CCCC=C2c1ccccc1)c1c(F)cccc1F [Compound 6, 2,6-Difluoro-N-(5-phenyl-8,9-dihydro-7H-benzocyclohepten-2-yl)-benzamide] | 6.77
CC1=C(c2ccccc2)c2ccc(NC(=O)c3c(F)cccc3F)cc2CCC1 [Compound 7, 2,6-Difluoro-N-(5-phenyl-6-methyl-8,9-dihydro-7H-benzocyclohepten-2-yl)-benzamide] | 6.41
Nc1ccc(C2=CCCCc3cc(NC(=O)c4c(F)cccc4F)ccc32)cc1 [Compound 8, 2,6-Difluoro-N-[5-(4-amino-phenyl)-8,9-dihydro-7H-benzocyclohepten-2-yl]-benzamide] | 6.84
CC(=O)Nc1ccc(C2=CCCCc3cc(NC(=O)c4c(F)cccc4F)ccc32)cc1 [Compound 9, 2,6-Difluoro-N-[5-(4-acetylamino-phenyl)-8,9-dihydro-7H-benzocyclohepten-2-yl]-benzamide] | 6.25

Next, values leading:

pIC50 | SMILES
< 6.00 | C/C(C(=O)O)=C1/CCCc2cc(NC(=O)c3c(F)cccc3F)ccc21 [Compound 1, 2-[6-(2,6-Difluoro-benzoylamino)-3,4-dihydro-2H-naphthalen-1-ylidene]-propionic acid]
< 6.00 | COC(=O)/C(C)=C1\CCCc2cc(NC(=O)c3c(F)cccc3F)ccc21 [Compound 2, 2-[6-(2,6-Difluoro-benzoylamino)-3,4-dihydro-2H-naphthalen-1-ylidene]-propionic acid methyl ester]
7.74 | C/C(C(=O)N1CCOCC1)=C1/CCCc2cc(NC(=O)c3c(F)cccc3F)ccc21 [Compound 3, 2,6-Difluoro-N-[5-(1-methyl-2-morpholin-4-yl-2-oxo-ethylidene)-5,6,7,8-tetrahydro-naphthalen-2-yl]-benzamide]
< 6.00 | C/C(CO)=C1/CCCc2cc(NC(=O)c3c(F)cccc3F)ccc21 [Compound 5, 2,6-Difluoro-N-[5-(2-hydroxy-1-methyl-ethylidene)-5,6,7,8-tetrahydro-naphthalen-2-yl]-benzamide]
